Consider 19 compounds from ChEMBL document CHEMBL3991601, “The target landscape of clinical kinase drugs” (Science, 2017).

Activity calls are given as the source filed them. Cut-off read from the data, not from the text of the source, for most assays here: actives have a measured Kd and inactives only a lower limit.

Assay [1] concerns the target T1, AarF domain-containing protein kinase 1 (Homo sapiens, UniProt Q86TW2).
T1 sequence (Q86TW2 whole entry): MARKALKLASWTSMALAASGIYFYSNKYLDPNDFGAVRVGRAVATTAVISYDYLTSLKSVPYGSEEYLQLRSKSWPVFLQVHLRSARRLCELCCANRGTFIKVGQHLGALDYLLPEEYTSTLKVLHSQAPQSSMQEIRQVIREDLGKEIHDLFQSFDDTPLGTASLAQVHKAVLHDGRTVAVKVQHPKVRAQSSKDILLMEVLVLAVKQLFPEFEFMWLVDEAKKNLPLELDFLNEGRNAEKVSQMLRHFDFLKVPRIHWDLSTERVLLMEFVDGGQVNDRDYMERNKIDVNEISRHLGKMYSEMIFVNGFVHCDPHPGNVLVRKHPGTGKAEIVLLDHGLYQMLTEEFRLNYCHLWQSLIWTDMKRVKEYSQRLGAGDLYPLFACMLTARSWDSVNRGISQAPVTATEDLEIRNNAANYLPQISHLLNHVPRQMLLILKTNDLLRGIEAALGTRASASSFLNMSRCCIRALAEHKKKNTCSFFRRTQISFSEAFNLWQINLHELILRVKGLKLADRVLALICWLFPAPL

Assay [2] concerns the target T2, Calcium/calmodulin-dependent protein kinase type IV (Homo sapiens, UniProt Q16566).
T2 sequence (Q16566 whole entry): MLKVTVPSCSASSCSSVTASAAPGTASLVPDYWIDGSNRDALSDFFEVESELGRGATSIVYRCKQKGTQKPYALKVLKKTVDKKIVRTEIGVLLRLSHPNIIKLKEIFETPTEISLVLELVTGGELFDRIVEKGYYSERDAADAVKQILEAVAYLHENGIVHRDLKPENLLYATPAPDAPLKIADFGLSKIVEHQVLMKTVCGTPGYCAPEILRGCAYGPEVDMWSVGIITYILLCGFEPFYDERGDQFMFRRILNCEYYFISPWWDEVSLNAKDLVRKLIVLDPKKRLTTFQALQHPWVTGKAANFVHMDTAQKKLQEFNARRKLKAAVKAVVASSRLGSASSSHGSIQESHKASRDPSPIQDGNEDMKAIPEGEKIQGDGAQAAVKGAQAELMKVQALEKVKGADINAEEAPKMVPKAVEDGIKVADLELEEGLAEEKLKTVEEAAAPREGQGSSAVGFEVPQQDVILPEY

For a further assay, the target named is T3, Ephrin type-B receptor 3 (Homo sapiens, UniProt P54753).
T3 sequence (P54753 whole entry): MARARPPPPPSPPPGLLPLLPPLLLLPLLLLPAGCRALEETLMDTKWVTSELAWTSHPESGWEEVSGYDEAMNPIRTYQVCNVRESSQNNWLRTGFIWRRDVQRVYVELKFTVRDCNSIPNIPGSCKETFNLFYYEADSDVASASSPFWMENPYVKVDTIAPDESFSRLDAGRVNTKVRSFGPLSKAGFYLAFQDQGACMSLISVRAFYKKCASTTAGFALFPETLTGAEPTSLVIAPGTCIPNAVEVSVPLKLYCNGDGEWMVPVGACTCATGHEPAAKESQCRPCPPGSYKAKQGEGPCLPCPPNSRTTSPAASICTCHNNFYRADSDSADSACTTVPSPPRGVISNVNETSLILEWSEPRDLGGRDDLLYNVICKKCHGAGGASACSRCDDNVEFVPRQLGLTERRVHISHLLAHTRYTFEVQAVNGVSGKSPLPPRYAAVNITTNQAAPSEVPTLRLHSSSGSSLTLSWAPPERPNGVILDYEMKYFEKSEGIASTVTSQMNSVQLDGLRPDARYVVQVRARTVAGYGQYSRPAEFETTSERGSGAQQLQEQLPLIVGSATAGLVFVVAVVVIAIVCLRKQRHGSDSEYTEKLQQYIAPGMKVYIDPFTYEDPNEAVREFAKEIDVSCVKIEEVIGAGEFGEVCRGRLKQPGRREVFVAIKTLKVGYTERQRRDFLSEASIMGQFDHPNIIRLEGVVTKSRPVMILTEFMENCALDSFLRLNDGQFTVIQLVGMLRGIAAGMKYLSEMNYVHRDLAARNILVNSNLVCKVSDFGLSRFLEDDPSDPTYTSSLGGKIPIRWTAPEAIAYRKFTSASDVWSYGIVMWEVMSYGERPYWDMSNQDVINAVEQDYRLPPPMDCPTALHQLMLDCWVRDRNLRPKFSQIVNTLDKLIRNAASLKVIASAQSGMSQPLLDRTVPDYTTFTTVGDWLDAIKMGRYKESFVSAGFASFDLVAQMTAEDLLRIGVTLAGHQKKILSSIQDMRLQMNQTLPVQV

Assay [3] deals with Tyrosine-protein kinase Lck (Homo sapiens, UniProt P06239).
Sequence of Tyrosine-protein kinase Lck (P06239 whole entry): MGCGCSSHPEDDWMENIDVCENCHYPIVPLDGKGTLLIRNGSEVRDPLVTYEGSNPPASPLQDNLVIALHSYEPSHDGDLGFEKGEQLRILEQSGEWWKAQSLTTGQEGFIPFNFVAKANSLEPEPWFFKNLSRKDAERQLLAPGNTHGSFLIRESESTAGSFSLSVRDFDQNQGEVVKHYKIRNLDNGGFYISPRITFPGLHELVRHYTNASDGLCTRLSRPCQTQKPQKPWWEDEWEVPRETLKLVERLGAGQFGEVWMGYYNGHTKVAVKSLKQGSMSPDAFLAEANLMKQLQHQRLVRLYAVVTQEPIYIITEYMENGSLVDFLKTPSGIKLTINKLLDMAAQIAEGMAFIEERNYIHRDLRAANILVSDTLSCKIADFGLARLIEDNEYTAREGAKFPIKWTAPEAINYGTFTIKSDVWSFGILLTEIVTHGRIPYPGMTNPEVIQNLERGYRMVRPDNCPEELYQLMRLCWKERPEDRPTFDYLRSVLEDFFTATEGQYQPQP
Assay [4] deals with Maternal embryonic leucine zipper kinase (Homo sapiens, UniProt Q14680).
Sequence of Maternal embryonic leucine zipper kinase (Q14680 whole entry): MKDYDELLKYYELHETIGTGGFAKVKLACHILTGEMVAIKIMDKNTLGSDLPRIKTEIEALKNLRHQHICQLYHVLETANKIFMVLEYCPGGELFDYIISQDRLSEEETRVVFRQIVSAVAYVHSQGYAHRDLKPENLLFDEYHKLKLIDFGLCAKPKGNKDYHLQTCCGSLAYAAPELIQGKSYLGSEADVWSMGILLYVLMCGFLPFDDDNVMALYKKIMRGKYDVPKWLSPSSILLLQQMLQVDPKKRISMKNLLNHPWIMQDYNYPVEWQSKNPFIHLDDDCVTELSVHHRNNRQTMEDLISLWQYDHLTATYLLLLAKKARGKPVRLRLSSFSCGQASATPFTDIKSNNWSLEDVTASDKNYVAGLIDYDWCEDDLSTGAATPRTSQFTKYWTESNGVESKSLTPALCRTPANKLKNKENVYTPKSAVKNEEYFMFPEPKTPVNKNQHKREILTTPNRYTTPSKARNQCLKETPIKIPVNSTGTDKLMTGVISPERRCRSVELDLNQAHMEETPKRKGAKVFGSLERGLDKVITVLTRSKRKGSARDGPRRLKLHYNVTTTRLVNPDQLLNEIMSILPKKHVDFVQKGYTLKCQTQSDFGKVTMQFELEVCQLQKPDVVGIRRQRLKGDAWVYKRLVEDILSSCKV
Assay [5] has as its target T4, Phosphatidylinositol 5-phosphate 4-kinase type-2 gamma (Homo sapiens, UniProt Q8TBX8).
T4 sequence (Q8TBX8 whole entry): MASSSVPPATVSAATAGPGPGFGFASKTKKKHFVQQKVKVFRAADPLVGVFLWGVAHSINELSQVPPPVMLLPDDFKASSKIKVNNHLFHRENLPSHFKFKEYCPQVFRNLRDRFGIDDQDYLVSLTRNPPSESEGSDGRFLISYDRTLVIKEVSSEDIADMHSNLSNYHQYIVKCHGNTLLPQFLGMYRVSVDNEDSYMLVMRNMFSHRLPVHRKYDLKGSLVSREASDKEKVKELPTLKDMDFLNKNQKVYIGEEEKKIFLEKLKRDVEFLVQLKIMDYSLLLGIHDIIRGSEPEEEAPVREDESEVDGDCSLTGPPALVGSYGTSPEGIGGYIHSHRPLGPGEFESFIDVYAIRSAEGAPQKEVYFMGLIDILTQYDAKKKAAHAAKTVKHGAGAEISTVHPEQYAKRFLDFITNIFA

Assay [6] deals with cAMP-dependent protein kinase catalytic subunit alpha (Homo sapiens, UniProt P17612).
Note: in the data inactive means no Kd found up to 30 µM.

The Kd is a measure of binding affinity in units of concentration. On to `CC[C@@H]1C(=O)N(C)c2cnc(Nc3ccc(C(=O)N[C@H]4CC[C@H](N5CCN(CC6CC6)CC5)CC4)cc3OC)nc2N1C(C)C` [VOLASERTIB], for which the Kd (in assay [1]; in assay [2]; on Ephrin type-B receptor 3; in assay [3]; in assay [4]; in assay [5]) was > 30 µM (inactive) in each case. Besides, the Kd in assay [6] is > 30 µM (inactive).

For the compound `Cc1ccc(S(=O)(=O)Nc2nc3ccccc3nc2Nc2ccc3nsnc3c2)cc1`, the Kd (in assay [1]; in assay [2]; at Ephrin type-B receptor 3; in assay [3]; in assay [4]; in assay [5]) was > 30 µM (inactive) each time. Further, the Kd in assay [6] is > 30 µM (inactive).

Turning to `Cn1cc(-c2ccc(F)c(C(F)(F)F)c2)nc1C1CCN(c2ncnc3[nH]ncc23)CC1` [LY-2584702], the Kd (in assay [1]; in assay [2]; at Ephrin type-B receptor 3; in assay [3]; in assay [4]; in assay [5]) was > 30 µM (inactive) each time. The Kd in assay [6] is > 30 µM (inactive).

As to `COc1cc(OC)c(/C=C/S(=O)(=O)Cc2ccc(OC)c(NCC(=O)O)c2)c(OC)c1` [RIGOSERTIB], the Kd (in assay [1]; in assay [2]; on Ephrin type-B receptor 3; in assay [3]; in assay [4]; in assay [5]) was > 30 µM (inactive) in each case. For the same compound, the Kd in assay [6] is > 30 µM (inactive).

Take `CCn1c(=O)c(-c2cc[nH]n2)cc2c(C)nc(N)nc21` [VOXTALISIB]: the Kd (in assay [1]; in assay [2]; at Ephrin type-B receptor 3; in assay [3]; in assay [4]; in assay [5]) was > 30 µM (inactive) throughout. Also, the Kd in assay [6] was > 30 µM (inactive).

As to `OCCn1cc(-c2cnc3nnn(Cc4ccc5ncccc5c4)c3n2)cn1` [PF-04217903], the Kd (in assay [1]; in assay [2]; on Ephrin type-B receptor 3; in assay [4]; in assay [5]) was > 30 µM (inactive) in each case.

For `CO[C@H]1C[C@@H]2CC[C@@H](C)[C@@](O)(O2)C(=O)C(=O)N2CCCC[C@H]2C(=O)O[C@H]([C@H](C)C[C@@H]2CC[C@@H](OCCO)[C@H](OC)C2)CC(=O)[C@H](C)/C=C(\C)[C@@H](O)[C@@H](OC)C(=O)[C@H](C)C[C@H](C)/C=C/C=C/C=C/1C` [EVEROLIMUS], the Kd (in assay [1]; in assay [2]; at Ephrin type-B receptor 3; in assay [3]; in assay [4]; in assay [5]) was > 30 µM (inactive) throughout. For the same compound, the Kd in assay [6] is > 30 µM (inactive).

On to `CCCS(=O)(=O)Nc1ccc(F)c(C(=O)c2c[nH]c3ncc(-c4ccc(Cl)cc4)cc23)c1F` [VEMURAFENIB], for which the Kd (in assay [1]; in assay [2]; at Ephrin type-B receptor 3; in assay [3]; in assay [4]; in assay [5]) was > 30 µM (inactive) each time. Moreover, the Kd in assay [6] is > 30 µM (inactive).

Turning to `CCn1c(-c2nonc2N)nc2c(C#CC(C)(C)O)ncc(OC[C@H]3CCCNC3)c21` [GSK-690693], in assay [1], the Kd is > 30 µM (inactive).

For the compound `Cc1cc(Nc2cc(N3CCN(C)CC3)nc(/C=C/c3ccccc3)n2)n[nH]1` [ENMD-2076], the Kd (in assay [1]; in assay [2]; on Ephrin type-B receptor 3; in assay [5]) was > 30 µM (inactive) each time.

Take `Nc1nc(N)c2nc(-c3cccc(O)c3)c(-c3cccc(O)c3)nc2n1` [TG100-115]: the Kd in assay [1] was > 30 µM (inactive).

With `CN1CCN(c2ccc3nc(-c4c(N)c5c(F)cccc5[nH]c4=O)[nH]c3c2)CC1` [DOVITINIB], the Kd in assay [1] is > 30 µM (inactive).

Turning to `O=C(Nc1cccc(Cl)c1)Nc1ncc(CCNc2ncnc3ccsc23)s1` [SNS-314], the Kd (in assay [1]; in assay [2]; at Ephrin type-B receptor 3) was > 30 µM (inactive) each time.

In the case of `CCc1cnn2c(NCc3ccc[n+]([O-])c3)cc(N3CCCC[C@H]3CCO)nc12` [DINACICLIB], the Kd (in assay [1]; in assay [2]; at Ephrin type-B receptor 3; in assay [4]; in assay [5]) was > 30 µM (inactive) each time.

For the compound `C[C@@H](c1ccc2nccn2c1)n1nnc2ncc(-c3cnn(C)c3)nc21` [SAVOLITINIB], the Kd (in assay [1]; at Ephrin type-B receptor 3; in assay [3]; in assay [4]; in assay [6]) was > 30 µM (inactive) each time.

With `N[C@@H]1CCCN(c2c(/C=C3\SC(=O)NC3=O)cccc2-c2ccccc2)C1`, the Kd (in assay [1]; on Ephrin type-B receptor 3; in assay [3]; in assay [4]; in assay [5]; in assay [6]) was > 30 µM (inactive) throughout.

Consider `Cc1nc(N)sc1-c1ccnc(Nc2ccc(N3CCOCC3)cc2)n1` [CYC-116], for which the Kd in assay [1] is 0.545 µM (active); in assay [2], > 30 µM (inactive); on Ephrin type-B receptor 3, > 30 µM (inactive); in assay [5], 0.067 µM (active).

With `Cc1ccc(NC(=O)c2ccc(CN3CC[C@H](N(C)C)C3)c(C(F)(F)F)c2)cc1Nc1nccc(-c2cncnc2)n1` [BAFETINIB], the Kd in assay [1] was > 30 µM (inactive); in assay [2], > 30 µM (inactive); on Ephrin type-B receptor 3, 4.55 µM (active); in assay [4], > 30 µM (inactive); in assay [5] it was 6.18 µM; in assay [6], > 30 µM (inactive).

As for `Cc1cn(-c2cc(NC(=O)c3ccc(C)c(Nc4nccc(-c5cccnc5)n4)c3)cc(C(F)(F)F)c2)cn1` [NILOTINIB], the Kd in assay [1] is > 30 µM (inactive).
